Assay results reported in patent US7476741B2, “Substituted 4H-chromens, 2H-chromenes, chromans and analogs as activators of caspases and inducers of apoptosis and the use thereof” (Cytovia, Inc., priority 2002, dated 2009).

Experiments:
ZR-75-1 = assay: Caspase cascade activation assay (N-(Ac-DEVD)-N'-ethoxycarbonyl-R110 fluorogenic substrate) in ZR-75-1 cells; type: cell-based; details: ZR-75-1 human breast cancer cells, 24 h incubation; for EC50: sigmoidal dose-response, read-out: ZR-75-1 EC50 (nM) (potency)
Method: (§1) Human breast cancer cell lines T-47D and ZR-75-1 were grown according to media component mixtures designated by American Type Culture Collection +10% FCS (Invitrogen Corporation), in a 5% CO2−95% humidity incubator at 37° C. T-47D and ZR-75-1 cells were maintained at a cell density between 30 and 80% confluency at a cell density of 0.1 to 0.6×10^6 cells/mL. Cells were harvested at 600×g and resuspended at 0.65×10^6 cells/mL into appropriate media +10% FCS. An aliquot of 45 μL of cells was added to a well of a 96-well microtiter plate containing 5 μL of a 10% DMSO in RPMI-1640 media solution containing 0.16 to 10 μM of 4-(3-bromo-4,5-dimethoxyphenyl)-3-cyano-4H-indolo[4,5-b]pyran (Example 1) or other test compound (0.016 to 1 μM final). An aliquot of 45 μL of cells was added to a well of a 96-well microtiter plate containing 5 μL of a 10% DMSO in RPMI-1640 media solution without test compound as the control sample. The samples were mixed by agitation and then incubated at 37° C. for 24 h in a 5% CO2-95% humidity incubator. After incubation, the samples were removed from the incubator and 50 μL of a solution containing 20 μM of N-(Ac-DEVD)-N′-ethoxycarbonyl-R110 (SEQ ID No.:1) fluorogenic substrate (Cytovia, Inc.; U.S. Pat. No. 6,335,429), 20% sucrose (Sigma), 20 mM DTT (Sigma), 200 mM NaCl (Sigma), 40 mM Na PIPES buffer pH 7.2 (Sigma), and 500 μg/mL lysolecithin (Calbiochem) was added. The samples were mixed by agitation and incubated at room temperature. Using a fluorescent plate reader (Model 1420 Wallac Instruments), an initial reading (T=0) was made approximately 1-2 min after addition of the substrate solution, employing excitation at 485 nm and emission at 530 nm, to determine the background fluorescence of the control sample. After the 3 h incubation, the samples were read for fluorescence as above (T=3 h).
(§2) The Relative Fluorescence Unit values (RFU) were used to calculate the sample readings as follows: RFU(T=3h)−Control RFU(T=0)=Net RFU(T=3h)
(§3) The activity of caspase cascade activation was determined by the ratio of the net RFU value for 4-(3-bromo-4,5-dimethoxyphenyl)-3-cyano-4H-indolo[4,5-b]pyran or other test compound to that of control samples. The EC50 (nM) was determined by a sigmoidal dose-response calculation (Prism 2.0, GraphPad Software Inc.).

T-47D = assay: Caspase cascade activation assay (N-(Ac-DEVD)-N'-ethoxycarbonyl-R110 fluorogenic substrate) in T-47D cells; type: cell-based; details: T-47D human breast cancer cells, 24 h incubation; ratio of net RFU of compound to control
Method: as §1, §2, §3

| SMILES | EC50 (ZR-75-1) [nM] | T-47D Ratio (caspase activity) (T-47D) | ZR-75-1 Ratio (caspase activity) (ZR-75-1; ratio of net RFU of compound to control) |
| --- | --- | --- | --- |
| COc1cc(C2c3ccc4[nH]ccc4c3OC(=O)C2C#N)cc(Br)c1OC (centres unmarked) [Example 14, 4-(3-Bromo-4,5-dimethoxyphenyl)-3-cyano-2-oxo-pyrrolo[2,3-h]chroman] | 278 | 4.8 | – |
| COc1ccc2c(c1)OC(=O)C(C#N)C2c1cc(OC)c(OC)c(OC)c1 (centres unmarked) [Example 13, 3-Cyano-7-methoxy-2-oxo-4-(3,4,5-trimethoxyphenyl)-chroman] | 67 | 4.3 | – |
| OC1CC(c2cc(Cl)cc(Cl)c2)c2ccc3cnccc3c2O1 (centres unmarked) | > 1000 | – | – |
| COc1cc(C2C(C#N)=COc3cc(N(C)C)ccc32)cc(Br)c1OC (centres unmarked) [Example 2, 4-(3-Bromo-4,5-dimethoxyphenyl)-3-cyano-7-dimethylamino-4H-chromene] | 30 | 5.5 | – |
| COc1ccc(C2CC(=O)Oc3cc(OC)c(OC)c(OC)c32)cc1OC (centres unmarked) | > 1000 | – | – |
| COc1cc(C2CC(OC(C)=O)Oc3c2ccc2c3ccn2C)cc(Br)c1OC (centres unmarked) [Example 20, 2-Acetoxy-4-(3-bromo-4,5-dimethoxyphenyl)-7-methyl-pyrrolo[2,3-h]chroman] | 3 | 4.7 | – |
| COc1cc(C2CC(O)Oc3c2ccc2[nH]c(=O)[nH]c32)cc(Br)c1OC (centres unmarked) [Example 29, 4-(3-Bromo-4,5-dimethoxyphenyl)-7,9-dihydro-2-hydroxy-8-oxo-imidazolo[4,5-h]chroman] | 360 | 6.0 | – |
| COc1cc(C2CC(O)Oc3c2ccc2c3ccn2C)cc(OC)c1OC (centres unmarked) [Example 25, 2-Hydroxy-7-methyl-4-(3,4,5-trimethoxyphenyl)-pyrrolo[2,3-h]chroman] | 4 | 10.1 | – |
| COc1cc(C2CC(OC)Oc3c2ccc2c3ccn2C)cc(Br)c1OC (centres unmarked) [Example 19, 4-(3-Bromo-4,5-dimethoxyphenyl)-2-methoxy-7-methyl-pyrrolo[2,3-h]chroman] | 48 | 4.5 | – |
| COC1CC(c2cc(Cl)cc(Cl)c2)c2ccc(N)cc2O1 (centres unmarked) | > 10000 | 1.2 | – |
| COc1cc(C2CC(O)Oc3c2ccc2[nH]ccc32)cc(Br)c1OC (centres unmarked) [Example 24, 4-(3-Bromo-4,5-dimethoxyphenyl)-2-hydroxy-pyrrolo[2,3-h]chroman] | 55 | 2.5 | – |
| COc1cc(C2C(C#N)=COc3c2ccc2c3ccn2C)cc(Br)c1OC (centres unmarked) [Example 4, 4-(3-Bromo-4,5-dimethoxyphenyl)-3-cyano-7-methyl-4H-indolo[4,5-b]pyran] | 2.2 | 5.9 | – |
| COc1ccc(C2CC(=O)Oc3c2cc(OC)c(OC)c3OC)cc1O (centres unmarked) [Example 32, 4-(3-Hydroxy-4-methoxyphenyl)-6,7,8-trimethoxy-chroman-2-one] | 3080 | 4.4 | – |
| COc1ccc(C2CC(=O)Oc3c2cc(OC)c(OC)c3OC)cc1 (centres unmarked) | 2650 | 5.7 | – |
| COc1cc(C2CC(O)Oc3c2ccc2cccnc32)cc(Br)c1OC (centres unmarked) [Example 28, 4-(3-Bromo-4,5-dimethoxyphenyl)-2-hydroxy-pyrido[3,2-h]chroman] | 344 | 6.5 | – |
| COc1ccc2c(c1)OCC(C#N)C2c1cc(OC)c(OC)c(OC)c1 (centres unmarked) [Example 11, 3-Cyano-7-methoxy-4-(3,4,5-trimethoxyphenyl)-chroman] | 101 | 9.6 | – |
| COc1cc(C2CC(=O)Oc3c2ccc2c3ccn2C)cc(Br)c1OC (centres unmarked) [Example 21, 4-(3-Bromo-4,5-dimethoxyphenyl)-7-methyl-pyrrolo[2,3-h]chroman-2-one] | 127 | 6.2 | – |
| COc1cc(C2CC(OC)Oc3cc(N(C)C)ccc32)cc(Br)c1OC (centres unmarked) [Example 16, 4-(3-Bromo-4,5-dimethoxyphenyl)-7-dimethylamino-2-methoxy-chroman] | 275 | 6.8 | – |
| OC1CC(c2cc(Cl)cc(Cl)c2)c2ccc3[nH]ccc3c2O1 (centres unmarked) | > 1000 | – | – |
| COc1cc(C2CC(O)Oc3c2ccc2cc[nH]c32)cc(Br)c1OC (centres unmarked) [Example 30, 4-(3-Bromo-4,5-dimethoxyphenyl)-2-hydroxy-pyrrolo[3,2-h]chroman] | 379 | 6.8 | – |
| N#CC1=COc2ccccc2C1c1ccccc1 (centres unmarked) [Example 6, 3-Cyano-4-phenyl-4H-chromene] | 2940 | In-active | In-active |

| SMILES | EC50 (ZR-75-1) [nM] | T-47D Ratio (caspase activity) (T-47D) | ZR-75-1 Ratio (caspase activity) (ZR-75-1; ratio of net RFU of compound to control) |
| --- | --- | --- | --- |
| COc1ccc(C2CC(=O)Oc3cc(OC)c(OC)c(OC)c32)cc1 (centres unmarked) | > 10000 | – | – |
| COc1cc(C2CC(OC(C)=O)Oc3cc(N(C)C)ccc32)cc(Br)c1OC (centres unmarked) [Example 17, 2-Acetoxy-4-(3-bromo-4,5-dimethoxyphenyl)-7-dimethylamino-chroman] | 29 | 5.2 | – |
| COc1cc(C2=C(Cl)COc3cc(N(C)C)ccc32)cc(OC)c1OC [Example 10, 3-Chloro-7-dimethylamino-4-(3,4,5-trimethoxyphenyl)-2H-chromene] | 280 | 8.2 | – |
| COc1ccc(C2c3ccc(N(C)C)cc3OC(OCCCN)C2Br)cc1OC (centres unmarked) | > 10000 | – | – |
| COc1cc(C2C(C#N)=COc3c2ccc2c3oc(=O)n2C)cc(Br)c1OC (centres unmarked) [Example 7] | 14 | 6.7 | – |
| COc1cccc(C2=CC(C)(C)Oc3cc(OC)ccc32)c1 | > 10000 | – | – |
| COc1cc(C2CCOc3c2ccc2c3ccn2C)cc(Br)c1OC (centres unmarked) [Example 22, 4-(3-Bromo-4,5-dimethoxyphenyl)-7-methyl-pyrrolo[2,3-h]chroman] | 48 | 6.5 | – |
| CCn1ccc2c3c(ccc21)C(c1cc(Br)c(OC)c(OC)c1)C(C#N)=CO3 (centres unmarked) [Example 5, 4-(3-Bromo-4,5-dimethoxyphenyl)-3-cyano-7-ethyl-4H-indolo[4,5-b]pyran] | 18 | 3.6 | – |
| Cn1ccc2c3c(ccc21)C(c1cncc(Br)c1)C(C#N)=CO3 (centres unmarked) [Example 3, 4-(5-Bromo-pyridin-3-yl)-3-cyano-7-methyl-4H-indolo[4,5-b]pyran] | 3 | 5.1 | – |
| COc1cc(C2=CCOc3cc(N(C)C)ccc32)cc(OC)c1OC [Example 9, 7-Dimethylamino-4-(3,4,5-trimethoxyphenyl)-2H-chromene] | 177 | 7.8 | – |
| COc1cccc(C2=C(Br)C(C)(C)Oc3cc(OC)ccc32)c1 | > 10000 | – | – |
| COc1cc(C2CC(O)Oc3c2ccc2cnccc32)cc(Br)c1OC (centres unmarked) [Example 26, 4-(3-Bromo-4,5-dimethoxyphenyl)-2-hydroxy-pyrido[3,4-h]chroman] | > 1000 | 1.1 | – |
| CC(=O)Nc1ccc2c(c1)OC(O)CC2c1cc(Cl)cc(Cl)c1 (centres unmarked) | > 10000 | – | – |
| COc1cc(C2CC(O)Oc3cc(N(C)C)ccc32)cc(Br)c1OC (centres unmarked) [Example 15, 4-(3-Bromo-4,5-dimethoxyphenyl)-7-dimethylamino-2-hydroxy-chroman] | 15 | 14.6 | – |
| COc1cc(C2CCOc3cc(N(C)C)ccc32)cc(Br)c1OC (centres unmarked) | > 10000 | – | – |
| COc1ccc2c(c1)OC(O)CC2c1cc(OC)c(OC)c(OC)c1 (centres unmarked) [Example 23, 7-Methoxy-2-hydroxy-4-(3,4,5-trimethoxyphenyl)-chroman] | 23 | 6.0 | – |
| COc1cc(C2CC(O)Oc3c2ccc2c3ccn2C)cc(Br)c1OC (centres unmarked) [Example 18, 4-(3-Bromo-4,5-dimethoxyphenyl)-2-hydroxy-7-methyl-pyrrolo[2,3-h]chroman] | 7.8 | 6.0 | – |
| COc1ccc2c(c1)OC(OCCN)CC2c1cc(OC)c(OC)c(OC)c1 (centres unmarked) | > 1000 | – | – |
| COc1ccc2c(c1)OC(=O)CC2c1cc(OC)c(OC)c(OC)c1 (centres unmarked) [Example 31, 7-Methoxy-4-(3,4,5-trimethoxyphenyl)-chroman-2-one] | 573 | 1.3 | – |
| COc1cc(C2CC(O)Oc3cc(NC(C)=O)ccc32)cc(Br)c1OC (centres unmarked) [Example 27, N-[4-(3-Bromo-4,5-dimethoxyphenyl)-2-hydroxy-chroman-7-yl]-acetamide] | 548 | 1.3 | – |
| COc1cc(C2CC(OC)Oc3cc(N)ccc32)cc(Br)c1OC (centres unmarked) | > 1000 | – | – |
